Consider 116 compounds from a melting point compilation (Tetko et al.).

As a reminder, the melting point is the temperature of the solid-liquid transition.

In the case of `CCC1=[N+]([O-])C(C)(C)N(C)C1(C)C`, the melting point was 32 to 34 °C.

Compound `O=c1c2ccccc2[nH]c(=S)n1-c1ccccc1` gave a melting point of 309 to 311 °C.

As for `CSCc1ccccc1`, the melting point was -28 °C.

Compound `CCOC(=O)c1c(-c2ccccc2)csc1NC(=O)c1ccc(Cl)cc1Cl` displayed a melting point of 149 to 150 °C.

`Nc1ccc(-c2ccc(-c3ccc(N)cc3)cc2)cc1` had a melting point of 247 °C.

As to `Oc1ccc2c(O)c3ccccc3cc2c1O`, the melting point was 208 °C.

`COc1ccc(C2Nc3nc(C(F)(F)F)nn3C(N)=C2C#N)cc1` (stereo unspecified) gave a melting point of 211 °C.

In turn, `NNc1cc(Cl)cc(Cl)c1` came in with a melting point of 115 °C.

For the compound `CCCCCCCCCOC(=O)c1ccc(N)cc1`, the melting point was 69 °C.

As to `Cn1c(=O)c(C2=NNC(=O)C2=C2C(=O)Nc3ccccc32)c(O)c2ccccc21`, the melting point turned out to be 279 °C.

`N#Cc1ccoc1` came in with a melting point of 29 to 31 °C.

For the compound `O=[N+]([O-])c1cc(C(F)(F)F)ccc1N1CCCC1`, the melting point was in the range of 54 to 56 °C.

Take `Brc1ccc(-c2ccco2)cc1`: the melting point is 83 to 84 °C.

`CC(C)CC(C)(C)CC(C)(C)CC(C)(C)C` had a melting point of -98 °C.

The compound `CCN(CC)C(=O)n1cnc(S(=O)(=O)c2c(C)cc(C)cc2C)n1` displayed a melting point of 115 °C.

With `OCc1ccc(N2CCCC2)nc1`, the melting point is 61 to 62 °C.

`COc1ccc(C(=O)CCC(=O)O)cc1F` showed a melting point of 171 °C.

Compound `Cc1cccc(N2CC(CO)OC2=O)c1` (stereo unspecified) yielded a melting point of 76 °C.

On to `Cc1c(Br)cc([N+](=O)[O-])cc1Br`, for which the melting point worked out at 56 °C.

For the compound `O=[N+]([O-])c1c(F)ccc(Cl)c1F`, the melting point worked out at 47 °C.

`CC1CCCS1` (stereo unspecified) came in with a melting point of -101 °C.

Regarding `Cc1cnc(Cl)c(Br)c1`, the melting point is 66 to 68 °C.

With `COC(=O)C1=C(C(=O)OC)Cc2cc3c(cc2C1)CC3`, the melting point is 133 °C.

`NC(=O)c1cncc(Br)c1` registered a melting point of 226 °C.

With `CC(C)(C)c1cc(O)c(O)c(O)c1`, the melting point came out at 135 °C.

For `N#C/C(=C/c1ccc(Cl)cc1Cl)c1nc(-c2ccc([N+](=O)[O-])cc2)cs1`, the melting point was 210 °C.

In turn, `CSc1nc(N)nc(-c2ccccn2)n1` came in with a melting point of 193 to 196 °C.

The compound `OC[C@H]1O[C@H](CO)[C@@H](O)[C@@H]1O` gave a melting point of 100 to 103 °C.

On to `CCC#CCC`, for which the melting point is -103 °C.

Consider `Cc1c(-c2ccccc2)[nH]c2ccccc12`, for which the melting point was 91.5 °C.

For `O=C1CCCN1c1ccc(C(F)(F)F)cc1`, the melting point is 134 to 136 °C.

In turn, `O=C1C(=Cc2ccco2)SC(=S)N1CN1CCCCC1` came in with a melting point of 120 to 121 °C.

For the compound `N#CCC(=O)c1cccs1`, the melting point was 112 °C.

The compound `N#Cc1ccc(O)c(Br)c1` registered a melting point of 158 °C.

`CC(=CC=C(C)C(=O)O)C(=O)O` came in with a melting point of 221 °C.

Consider `N#CC1=C(N)Oc2[nH]nc(C(F)(F)F)c2C1c1ccc(O)cc1` (stereo unspecified), for which the melting point is 197 °C.

As for `O=C1c2ccccc2C(=O)N1c1n[nH]c2ncccc12`, the melting point worked out at 254 °C.

For `ON=CNc1ccc(Cl)nn1`, the melting point lay within 207 to 211 °C.

Consider `CN1C(=O)CN(C(=O)OC(C)(C)C)[C@@H]1C(C)(C)C`, for which the melting point lay within 66 to 70 °C.

As for `COC(=O)c1cnc(SCC(=O)NC(=O)Nc2ccccc2)n1C`, the melting point is 204 to 205 °C.

`O=C(NC(=O)c1c(F)cccc1F)Nc1cc(Cl)c(F)c(Cl)c1F` gave a melting point of 225 °C.

`N#Cc1cccc(N2CCCCC2)c1` showed a melting point of 133 to 136 °C.

As to `COC(=O)C1=C(C)c2ccccc2C1`, the melting point worked out at 66 °C.

The compound `CCC(C)=NNc1ccc([N+](=O)[O-])cc1[N+](=O)[O-]` registered a melting point of 117 °C.

Regarding `C/C=C/C(=O)OC`, the melting point was -42 °C.

On to `CC(C)(C)C(=O)C=Cc1ccccc1`, for which the melting point worked out at 43 °C.

The compound `Cc1c([N+](=O)[O-])cc2c(c1[N+](=O)[O-])C(C)(C)CC2(C)C` registered a melting point of 132 °C.

In turn, `CC(=O)OC1(C(C)=O)CCC2C3C=C(Cl)C4=CC(=O)C=CC4(C)C3CCC21C` (stereo unspecified) returned a melting point of 168 °C.

Compound `Nc1ccc(C=CC(=O)c2ccccc2)cc1` registered a melting point of 151 °C.

With `Cc1ccccc1Oc1ccccc1`, the melting point was found to be 21.7 °C.

In the case of `CCS(=O)(=O)CCn1c([N+](=O)[O-])cnc1C`, the melting point was 128 °C.

`O=C1CC(c2ccc([N+](=O)[O-])cc2)=NN1c1ccccc1` registered a melting point of 189 °C.

Consider `CC(C)C[C@@H](N)C(=O)O`, for which the melting point amounted to 300 °C.

For the compound `CC(C)(O)CCc1ccccc1O`, the melting point is 114 to 116 °C.

With `CC(=O)c1nn2c(nc(=O)c3ccccc32)s1`, the melting point was found to be 199 °C.

In turn, `O=[N+]([O-])c1ccc(/C=C\c2ccccc2C=NNc2ccccc2)c([N+](=O)[O-])c1` displayed a melting point of 193 °C.

In turn, `Cc1ccc(C#N)c(=O)[nH]1` yielded a melting point of 293 to 295 °C.

`Sc1nc2cc(Cl)ccc2[nH]1` showed a melting point of 300 °C.

`CS(=O)(=O)OS(C)(=O)=O`: the melting point fell in the range of 69 to 70 °C.

Regarding `O=C(O)c1cccc(-c2cc[nH]n2)c1`, the melting point was 204 °C.

In turn, `CCCCOC(N)=O` returned a melting point of 51 to 56 °C.

With `CC(C)(C)OC(=O)N1CCN(c2ccccc2CO)CC1`, the melting point is 67 to 71 °C.

`OC[C@@H](O)COCc1ccccc1` gave a melting point of 24 to 27 °C.

As for `CC(C)(C)c1cc(C(=O)NN)[nH]n1`, the melting point fell in the range of 177 to 181 °C.

As for `Clc1cc(Cl)c2c(oc3c(Cl)cccc32)c1Cl`, the melting point came out at 177 °C.

With `CC(=O)OCC1OC(C(N)=O)C(OC(C)=O)C(OC(C)=O)C1OC(C)=O` (stereo unspecified), the melting point lay within 127 to 130 °C.

For `CC=CC=C(C)C`, the melting point is -74.2 °C.

`N[C@H](CCCCP(=O)(O)O)C(=O)O` yielded a melting point of 215 to 220 °C.

`O=C(O)c1cccc(OOCl)c1` showed a melting point of 92 °C.

Take `O=C1COC(c2ccc(C(F)(F)F)cc2)CN1` (stereo unspecified): the melting point is 116 °C.

In turn, `CCCN(CCC)C(=O)COC(=O)c1ccccc1` showed a melting point of 20 °C.

`CC(C(=O)O)C1CCC2C3CCC4CC(=O)CCC4(C)C3CCC12C` (stereo unspecified) had a melting point of 253 °C.

Compound `O=C(O)C=Cc1cc([N+](=O)[O-])ccc1Sc1ccc(Cl)cc1` displayed a melting point of 212 to 215 °C.

`CC(CCC(=O)O)C1CCC2C3CCC4CC(=O)CCC4(C)C3CC(O)C12C` (stereo unspecified): the melting point is 107 to 109 °C.

`Oc1cc2c(cc1O)CCN=C2`: the melting point was in the range of 244 to 248 °C.

Compound `NN1C(=O)CSC1=S` had a melting point of 102 °C.

Take `Cc1cc(C(F)(F)F)n2nc(N)c(/N=N/c3ccc4ccccc4c3)c2n1`: the melting point was determined as 246 °C.

In turn, `COc1ccccc1NC(=O)C(C(F)(F)F)C(F)(F)F` yielded a melting point of 163 °C.

`Cc1cc2c(s1)=Nc1ccccc1NC=2N1CCN(C)CC1`: the melting point is 195 °C.

`N#Cc1ccc(F)c([N+](=O)[O-])c1` had a melting point of 92 °C.

Compound `CCCC(=O)N(C)C` came in with a melting point of -40 °C.

`O=C(O)CCc1cccc(O)c1` showed a melting point of 112 °C.

In the case of `CC1CC(=O)Nc2ccccc2N1` (stereo unspecified), the melting point was 180 to 183 °C.

On to `COC(=O)c1cc2cc(N)ccc2s1`, for which the melting point lay within 178 to 179 °C.

As to `C=COCC(C)C`, the melting point was -112 °C.

The compound `Nc1c(C(=O)O)cccc1C(F)(F)F` came in with a melting point of 157 to 160 °C.

In turn, `C=C(Br)C(=O)O` showed a melting point of 68 °C.

In the case of `COC(=O)c1ccc(C(C)=O)cc1`, the melting point lay within 93 to 95 °C.

For `Cc1c(Br)cc(N)c(N)c1C`, the melting point lay within 70 to 74 °C.

In the case of `N=C1NCCS1`, the melting point stood at 85.3 °C.

Compound `O=C(O)Cc1c(F)ccc(F)c1F` had a melting point of 111 to 114 °C.

As to `NNC(=O)c1cnn(-c2ccc(Cl)cc2)c1C(F)(F)F`, the melting point was 179 to 181 °C.

`CCCCOCC` registered a melting point of -124 °C.

The compound `CCOC(=O)c1ccc(OC)c(OC)c1Cl` gave a melting point of 50 to 52 °C.

`CCC(C)(O)C(C)(C)C` (stereo unspecified) had a melting point of -6 °C.

Turning to `COc1ccc(C=NN=Cc2ccc(OC)cc2)cc1`, the melting point is 167 to 168 °C.

`CN(C)CCc1ccc(O)cc1`: the melting point was found to be 118 °C.

As for `NC(=O)NNC(N)=O`, the melting point fell in the range of 247 to 250 °C.

On to `NC(=NO)c1cccc(Cl)c1Cl`, for which the melting point was in the range of 139 to 140 °C.

`Brc1ccc(Oc2c(Br)cccc2Br)c(Br)c1` yielded a melting point of 96 to 97 °C.

In turn, `COc1ccc(P(c2ccc(OC)cc2)c2ccc(OC)cc2)cc1` came in with a melting point of 131 to 134 °C.

On to `COC(=O)c1cc(Br)cc(C(=O)OC)c1`, for which the melting point is 89 to 91 °C.

`NC(=O)c1cccnc1Oc1ccccc1`: the melting point lay within 162 to 163 °C.

`CCCCCCCCCCCC(O)CC` (stereo unspecified) displayed a melting point of 31.5 °C.

As for `COc1ccc(Cc2c(N)n[nH]c2N)cc1`, the melting point is 152 to 154 °C.

`CC1=CC(=O)OC(C)(C)O1` registered a melting point of 7 °C.

`CN(CC(=O)O)N=O`: the melting point is 66.5 °C.

`Clc1cncc(Br)c1` yielded a melting point of 80 °C.

Compound `O=C1NN=C(C(F)(F)F)C1=NNc1ccccc1C(=O)O` registered a melting point of 274 °C.

`COC(=O)c1ccc(C(F)(F)F)cc1` displayed a melting point of 14 °C.

As for `COc1ccc2c(C(=S)N(C)CC(=O)O)cccc2c1C(F)(F)F`, the melting point is 164 °C.

Regarding `CCOC(=O)c1cnn(C)c1S(=O)(=O)NC(=O)Nc1nc(OC)cc(OC)n1`, the melting point worked out at 182 °C.

For the compound `OCC(CO)(CO)CBr`, the melting point is 76 °C.

On to `COc1ccc(C=CC(=O)Cl)c(Cl)c1OC`, for which the melting point was in the range of 86 to 88 °C.

Compound `O=C(O)c1cccc(C(=O)O)c1C(=O)O` displayed a melting point of 200 °C.

`Cc1cc(O)c(C(c2ccc([N+](=O)[O-])cc2)c2c(O)cc(C)oc2=O)c(=O)o1` registered a melting point of 238 to 240 °C.
